Assays:
OVCAR-3 xenograft = test: OVCAR-3 ovarian cancer xenograft; type: in vivo; conditions: for Tumor weights at necropsy: Phor18-LHRH: 2 and 0.2 mg/kg vs saline and Phor18, p<0.05; for Tumor volume: during treatment
Protocol: The xenograft model of the OVCAR-3 human ovarian cancer cell line that present functional LHRH receptors was used in this study. OVCAR-3 represents a slow growing xenograft model and secretes the tumor marker (cancer antigen 125, or CA125). It's secretion can be used as treatment response and is a measure of drug activity.
In brief, Nu/Nu female mice, inbred strain, age 5 weeks (Harlan-Sprague Dawley) were injected subcutaneously with a NIH:OVCAR-3 cells/Matrigel suspension (4.6×10^6 cells/mouse). Treatment was started on day 33 after tumor cell injection when the tumors were established and continued on days 41 and 47. The doses for the 3 weekly injections were 0.02, 0.2 and 2 mg/kg body weight, given as a single bolus intravenous injection via lateral tail vein administered once a week for three weeks on days 33, 41 and 47. Necropsies were conducted on day 52. Data are presented as mean SEM. Arrows show dosing.
A group of 9 tumor bearing mice was sacrificed on day 33 and served as baseline group. All mice were necropsied 51-52 days after tumor cell injection. Tumor volumes and bodyweights were recorded twice weekly during the study, as well as overall veterinarian examination of mice was conducted.
Primary tumors, liver, kidney, pancreas, heart, lung, and spleen were collected, fixed in formalin and prepared for histological evaluation. Tumor weights were measured at necropsy, part of the tumors were frozen at −80° C. for LH/CG and LHRH receptor assay determination.
As a biomarker for drug activity, CA125 was determined in serum, collected from each individual mouse at necropsy using a Enzyme Linked Immunoassay for quantitative determination of ovarian cancer antigen CA125 (Assay kit Genway, Biotech, Inc. San Diego, Calif., Catalog #40-052-115009, # BC-1013 according to the manufacturer).
LHRH receptor levels were assessed from formalin fixed tumors. Quantitative immunoperoxidase image analysis was conducted with the Ventana Image Analysis System (VIAS) adjunctive computer assisted image analysis system functionally connected to an interactive microscope (Axio Imager). The quantitative analysis was conducted with the program for quantification of Her2/neu receptor that included morphometric and colorimetric analysis. Receptor status results were reported as percentage of cells showing positive staining of the LHRH receptors under the following criteria: 0 non-immunoreactive, 1+: 1-25% positive, 2+: 26 50% positive, 3+: 51-75% positive cells.

MDA-MB 435S cells = test: In vitro kinetics of cytotoxicity (MTT), MDA-MB-435S cells; type: cell-based, human; conditions: all cell lines presenting functional LHRH receptors (MDA-MB-435, MCF-7, OVCAR-3)
From the text: Membranes of non-cancerous cell lines are neutral and are resistant to cytolytic peptides, in contrast to cancer cell lines, which have a high phosphatidic acid content in their outer membrane.
The breast cancer cell lines studied were MDA-MB-4355 (estrogen receptor alpha negative), MCF-7 and T47D (estrogen receptor alpha positive), ovarian cancer cell lines (OVCAR-3 and SKOV-3), prostate cancer (LNCaP), the non-malignant breast epithelial cell line MCF-10A and the mouse fibroblast cell line NIH:3T3.
Cells were seeded into 96 well plates at a densitiy of 10,000 cells/well. […] Controls contained USP saline or 0.1% TritonX-100™ as reference for 0 and 100% cell death, respectively. […] Cell viability was assessed through formazan conversion assay (MTT assay, (CellTiter 96 Aqueous One, Promega # G3582). Formazan conversion was determined using a BioRad Benchmark Plus microplate spectrophotometer dual wavelengths at 490/630 nm at room temperature).
Data were calculated as fraction of absorption in TritonX-100™ containing wells representing 100% cell death versus 0% cell death in saline containing wells. Cytotoxicity was determined as IC50 using GraphPad Prism version 5.01 for Windows, GraphPad Software, San Diego Calif. […] 4 wells of each individual set of two 96 well plates were compared and analyzed. Statistical analysis for significance was determined by a two-tailed Student's T-test.

MDA-MB-435S xenograft = test: MDA-MB-435S xenograft, minimal effective dose, once weekly for 3 weeks; type: in vivo, mice
Protocol: To determine the minimal effective dose necessary to reduce MDA-MB-435S xenograft weights in a single dose regimen, Nu/Nu female mice, outbred strain, age 5 weeks (Charles River), were injected (s.c.) into the interscapular region with a MDA-MB-435S (passage #249)/Matrigel suspension (2.4×10^6 cells/mouse) [Leuschner 2006].
Each group consisted of 16 mice, which were injected once a week for 3 weeks. A group of 16 mice was sacrificed at the time of treatment start to serve as baseline. Saline injections served as control groups. During the entire study tumor volumes were recorded twice weekly.
Treatment started on day 16 after tumor cell injection when the tumors were established and continued on days 23 and 30. All remaining mice were necropsied 37 days after tumor cell injection.
Treatment response was determined by tumor weights and tumor weight change at necropsy compared to saline controls and untargeted Phor18 treatment. Primary tumors were collected, weighed and prepared for histological evaluation in formalin fixation with […]. Statistical evaluation of data sets were conducted in GraphPad Prizm 4 and significance calculated by Wilcoxon signed-rank test.

PC-3 xenograft = test: PC-3 prostate cancer xenograft, Phor18-LHRH; type: in vivo, mice; conditions: for Overall efficacy in PC-3 xenografts: mouse, in vivo
Protocol: PC-3 xenografts untreated cause significant weight loss in mice.
In brief, Nu/Nu male mice, outbred strain, age 6 weeks (Charles River) were injected subcutaneously with a PC-3 cells/Matrigel suspension (1×10^6 cells/mouse). Treatment was started on day 15 after tumor cell injection when the tumors were established and continued on days 22 and 29. The doses for the 3 weekly injections were 2, 0.2 and 0.02 mg/kg body weight, given as a bolus single intravenous injection via lateral tail vein.
A group of 12 tumor bearing mice was sacrificed on day 15 and served as baseline group. All mice were necropsied 35 and 36 days after tumor cell injection. Tumor volumes and bodyweights were recorded twice weekly during the study, as well as overall veterinarian examination of mice was conducted.
Primary tumors, liver, kidney, pancreas, heart, lung, and spleen were collected, fixed in formalin and prepared for histological evaluation. Tumor weights were measured at necropsy, part of the tumors were frozen at 80° C. for LH/CG and LHRH receptor assay determination.

MCF-7 xenograft = test: MCF-7 breast cancer xenograft; type: in vivo, mice; conditions: MCF-7, 2 × 3 wk, 19 d
Protocol: In vivo efficacy studies were conducted as monotherapy, or a combination therapy with standard of care treatments in nude mice bearing human breast cancer xenografts: MDA-MB-435S.luc (s.c.), MCF-7 (estrogen receptor alpha positive), human ovarian cancer xenografts: OVCAR-3, (s.c.), human prostate cancer xenografts: PC-3 (androgen receptor negative).
Mice were sacrificed one week after the last injection and blood collected for chemistry panel, tumor weights and body weights were recorded. Part of the tumors were fixed in PBS buffered 10% formalin for histological evaluation.

| Substance | Tumor weights at necropsy (OVCAR-3 xenograft) | Tumor volume (OVCAR-3 xenograft; listed as CLIP71) | Incubation time to maximum effect (MDA-MB 435S cells) [h] | Tumor volumes and tumor weights (MDA-MB-435S xenograft; mouse, in vivo) | Overall efficacy in PC-3 xenografts (PC-3 xenograft) | Lowest concentration with tumor volume reduction compared to baseline (OVCAR-3 xenograft; 42 days after tumor cell injection, p<0.001) [mg/kg] | Tumor volume (OVCAR-3 xenograft) | Dose with greatest tumor regression compared to treatment start (OVCAR-3 xenograft; p<0.03 vs baseline) [mg/kg] | Median Tumor Weight vs Saline P < 0.05 (dose, growth delay) (MCF-7 xenograft) [mg/kg growth] | Remarks / histological evaluation of tumors (MDA-MB-435S xenograft; hematoxylin/eosin) | Lowest dose with significant necrosis in tumors (MDA-MB-435S xenograft; mouse, in vivo) [mg/kg] | Lowest concentration with tumor volume reduction compared to saline controls and CLIP71 (PC-3 xenograft; 22 days after tumor cell injection, p<0.001) [mg/kg] | Tumor weights compared to saline controls and CLIP-71 (PC-3 xenograft; all treated groups) | Tumor volume (PC-3 xenograft; during treatment) |
| --- | --- | --- | --- | --- | --- | --- | --- | --- | --- | --- | --- | --- | --- | --- |
| KFAKFAK KFAKFAK KFAK [Phor18] | not effective | no reduction | 24 | did not decrease tumor weights or destroy tumor tissue | ineffective | – | – | – | – | – | – | – | – | – |
| KFAKFAKKFAKFAKKFAKQHWSYGLRPG [Phor18-LHRH] | Reduced tumor weights | – | 0.5 to 1 | – | effective in arresting tumor growth | 0.2 | decreased | 0.2 | 0.02 | significant necrosis | 0.0002 | 0.002 | significantly reduced | decreased |

Source: US20140161767A1, “FOLLICLE-STIMULATING HORMONE (FSH)/LYTIC DOMAIN FUSION CONSTRUCTS AND METHODS OF MAKING AND USING SAME” (BOARD OF SUPERVISORS OF LOUISIANA STATE UNIVERSITY AND …, priority 2012, published 2014)
